From US20140179624A1, “CYTOPROTECTIVE DERIVATIVES OF AVICIN D AND METHODS OF MAKING AND USING THEREOF” (Research Development Foundation, priority 2012, published 2014)

Key:
human preadipocytes = experiment: Differentiation of human preadipocytes to mature adipocytes; assay type: cell-based
NF-κB [1] = experiment: TNF-induced p(IL6-κB)350hu.IL6P-Luc luciferase reporter in HEK 293T cells with and without GR (FIG. 3); assay type: cell-based
Text: FIG. 3 is graph showing the expression of glucocorticoid receptor (GR) in HEK293T cells with and without GR.
However, TNF-induced activation of p(IL6-κB)350hu.IL6P-Luc was inhibited by both avicin D and Dex in HEK 293T cells transfected with GR (FIG. 3). […] This observation supports the notion that avicins are not able to induce GR transactivation.

[2] = system: NF-E2-related factor 2 (Nrf2); conditions: redox-dependant manner; cited from earlier work
[3] = target: T1, glucocorticoid receptor (GR) (Homo sapiens, UniProt P04150); experiment: Phosphorylation of GR Ser-211 (FIG. 4); assay type: cell-based; conditions: even after 16 hours
T1 sequence (P04150 1-777): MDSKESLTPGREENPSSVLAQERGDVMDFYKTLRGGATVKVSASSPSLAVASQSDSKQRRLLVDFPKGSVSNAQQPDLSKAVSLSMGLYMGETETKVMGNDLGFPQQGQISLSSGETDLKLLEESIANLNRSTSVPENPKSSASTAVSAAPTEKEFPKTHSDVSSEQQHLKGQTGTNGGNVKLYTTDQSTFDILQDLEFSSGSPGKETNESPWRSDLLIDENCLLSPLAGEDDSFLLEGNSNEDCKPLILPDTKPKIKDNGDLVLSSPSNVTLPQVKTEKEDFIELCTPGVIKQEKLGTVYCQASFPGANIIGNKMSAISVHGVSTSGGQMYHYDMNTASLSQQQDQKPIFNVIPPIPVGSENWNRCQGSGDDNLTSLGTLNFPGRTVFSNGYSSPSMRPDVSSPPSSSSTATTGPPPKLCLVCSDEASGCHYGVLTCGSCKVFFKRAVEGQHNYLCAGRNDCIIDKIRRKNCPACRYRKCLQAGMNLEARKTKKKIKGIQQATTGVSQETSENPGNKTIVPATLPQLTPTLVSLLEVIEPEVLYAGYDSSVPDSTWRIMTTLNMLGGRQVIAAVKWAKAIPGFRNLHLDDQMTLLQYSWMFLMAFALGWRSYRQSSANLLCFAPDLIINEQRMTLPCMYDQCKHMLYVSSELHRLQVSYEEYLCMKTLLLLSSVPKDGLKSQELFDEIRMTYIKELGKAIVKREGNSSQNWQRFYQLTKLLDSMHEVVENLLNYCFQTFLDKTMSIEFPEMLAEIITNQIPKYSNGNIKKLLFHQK

IL-6 = experiment: Expression of constitutive and TNF-induced IL-6 (FIG. 2B); assay type: cell-based
cell cytotoxicity = conditions: screen of Acacia victoriae compounds; U.S. Pat. No. 6,444,233; cited from earlier work
NF-κB [4] = experiment: Inhibition of NF-κB activation (FIG. 2A); assay type: cell-based; conditions: compared with dexamethasone
chemotaxis = experiment: Inhibition of chemotaxis; assay type: cell-based; conditions: preliminary data
Text: The compositions described herein contain an effective amount of the one or more avicin derivatives. The amount to be administered can be readily determined by the attending physician based on a variety of factors including, but not limited to, age of the patient, weight of the patient, disease or disorder to be treated, presence of a pre-existing condition, and dosage form to be administered (e.g., immediate release versus modified release dosage form). Typically, the effective amount is from about 0.1 mg/kg/day to about 100 mg/kg/day, more preferably from 0.1 mg/kg/day to 50 mg/kg/day, more preferably from 0.1 mg/kg/day to 25 mg/kg/day, and most preferably from 0.1 mg/kg/day to 10 mg/kg/day. Dosages greater or less than this may be administered depending on the diseases or disorder to be treated.

3T3-L1 cells = experiment: Adipogenesis in 3T3-L1 cells; assay type: cell-based
NF-κB [5] = conditions: redox-dependant manner; cited from earlier work

SMILES | differentiation of human preadipocytes to mature adipocytes (human preadipocytes) | intracellular triglyceride levels (human preadipocytes) | TNF-induced activation of p(IL6-κB)350hu.IL6P-Luc (NF-κB [1]; HEK 293T cells transfected with GR) | luciferase activity (NF-κB [1]; wild type HEK 293T cells (without GR)) | Nrf2 activation [2] | phosphorylation of Ser-211 [3] | expression of constitutive and TNF-induced IL-6 (IL-6) | induction of cell cytotoxicity (cell cytotoxicity) | activation of NF-κB (NF-κB [4]) | inhibition of chemotaxis (chemotaxis) | PKA-mediated CREB activity (3T3-L1 cells) | adipolysis and adipocyte apoptosis (3T3-L1 cells) | preadipocyte differentiation (3T3-L1 cells) | adipogenesis (3T3-L1 cells; 3T3-L1 cells) | intracellular triglyceride level (3T3-L1 cells; 3T3-L1 cells) | expression and secretion of adiponectin (3T3-L1 cells; in adipocytes) | NF-κB inhibition (NF-κB [5])
C=C[C@](C)(O)CC/C=C(\CO)C(=O)O[C@H]1[C@H](O)[C@@H](O)[C@H](O[C@@](C)(C=C)CC/C=C(\CO)C(=O)O[C@H]2C[C@]3(C(=O)O[C@@H]4O[C@H](CO)[C@@H](O)[C@H](O)[C@H]4O[C@@H]4O[C@@H](C)[C@H](O[C@@H]5O[C@@H](CO)[C@H](O)[C@H]5O)[C@@H](O[C@@H]5O[C@H](CO)[C@@H](O)[C@H](O)[C@H]5O)[C@H]4O)[C@H](O)C[C@]4(C)C(=CC[C@@H]5[C@@]6(C)CC[C@H](O[C@@H]7O[C@H](CO[C@@H]8O[C@H](C)[C@H](O)[C@H](O)[C@H]8O[C@@H]8OC[C@@H](O)[C@H](O)[C@H]8O)[C@@H](O)[C@H](O)[C@H]7NC(C)=O)C(C)(C)[C@@H]6CC[C@]54C)[C@@H]3CC2(C)C)O[C@@H]1C [Avicin D] | inhibited the differentiation of human preadipocytes to mature adipocytes | reduced intracellular triglyceride levels | inhibited | neither avicin D nor dexamethasone had an effect | activate NF-E2-related factor 2 (Nrf2) | does not enhance phosphorylation of Ser-211 | suppresses the expression of both constituitive and TNF-induced IL-6 | significant activity | inhibits activation of NF-κB in a similar manner to dexamethasone | effective at inhibiting chemotaxis at picomolar and nanomolar concentrations | inhibited PKA-mediated CREB activity | did not affect | suppressed preadipocyte differentiation | inhibit adipogenesis | reduce intracellular triglyceride level in a dose-dependent manner | increased the expression and secretion of adiponectin | inhibit NF-κB
C=C[C@](C)(O)CC/C=C(\C)C(=O)O[C@H]1[C@H](O)[C@@H](O)[C@H](O[C@@](C)(C=C)CC/C=C(\CO)C(=O)O[C@H]2C[C@]3(C(=O)O[C@@H]4O[C@H](CO)[C@@H](O)[C@H](O)[C@H]4O[C@@H]4O[C@@H](C)[C@H](O[C@@H]5O[C@@H](CO)[C@H](O)[C@H]5O)[C@@H](O[C@@H]5O[C@H](CO)[C@@H](O)[C@H](O)[C@H]5O)[C@H]4O)[C@H](O)C[C@]4(C)C(=CC[C@@H]5[C@@]6(C)CC[C@H](O[C@@H]7O[C@H](CO[C@@H]8O[C@H](C)[C@H](O)[C@H](O)[C@H]8O[C@@H]8OC[C@@H](O)[C@H](O)[C@H]8O)[C@@H](O)[C@H](O)[C@H]7NC(C)=O)C(C)(C)[C@@H]6CC[C@]54C)[C@@H]3CC2(C)C)O[C@@H]1C [avicin G] |  |  |  |  |  |  |  | significant activity |  |  |  |  |  |  |  |  | 
